From PubChem BioAssay (NCI)
Several values for one entry are separate records, joined by “and”; a condition that tells them apart may be missing. Equal entries are not always repeated.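 Tested at 5 concentrations; 48 h exposure; 96-well plates; endpoints linearly interpolated, else capped at highest concentration. GI50 = concentration required for 50% inhibition of growth. Definition used: TGI = concentration required for complete inhibition of growth.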

Experiments:
Assay in all cases: growth of human tumour cells (NCI), 48 h
RXF 393 renal = system: RXF 393 renal
SK-MEL-2 melanoma = system: SK-MEL-2 melanoma
HOP-62 NSCLC = system: HOP-62 NSCLC
A498 renal = system: A498 renal
CAKI-1 renal = system: CAKI-1 renal
SK-MEL-28 melanoma = system: SK-MEL-28 melanoma
SF-295 CNS = system: SF-295 CNS
MALME-3M melanoma = system: MALME-3M melanoma
HCC-2998 colon = system: HCC-2998 colon
786-0 renal = system: 786-0 renal

Row | Compound | TGI (RXF 393 renal) | TGI (SK-MEL-2 melanoma) | TGI (HOP-62 NSCLC) | TGI (A498 renal) | TGI (CAKI-1 renal) [µM] | TGI (SK-MEL-28 melanoma) | TGI (SF-295 CNS) [µM] | TGI (MALME-3M melanoma) | TGI (HCC-2998 colon) | TGI (786-0 renal) [µM] | GI50 (SK-MEL-2 melanoma) [µM] | GI50 (HOP-62 NSCLC) [µM] | GI50 (SK-MEL-28 melanoma) [µM] | GI50 (MALME-3M melanoma) [µM]
1 | O=C1C(=O)C(CCCO)(CCCO)CCCCCCCCC1(CCCO)CCCO | 68.8 µM | > 100 µM | > 100 µM | > 100 µM | > 100 | > 100 µM | > 100 | > 100 µM | > 100 µM | > 100 |  |  |  | 
2 | O=C(n1c(=O)n(-c2ccc([N+](=O)[O-])cc2)c(=O)n1C(=O)C(Cl)(Cl)Cl)C(Cl)(Cl)Cl | > 100 µM | > 100 µM | > 100 µM | > 100 µM | > 100 | > 100 µM | > 100 | > 100 µM | > 100 µM | > 100 |  |  |  | 
3 | O=c1[nH]nc(Cc2ccc([N+](=O)[O-])cc2)[nH]1 | > 100 µM | > 100 µM | > 100 µM | > 100 µM | > 100 | > 100 µM | > 100 | > 100 µM | > 100 µM | > 100 |  |  |  | 
4 | Cc1cc(=O)[nH]c(S(=O)(=O)NC(=S)Nc2ccc(Br)cc2)n1 | > 100 µM | > 100 µM | > 100 µM | > 100 µM | > 100 | > 100 µM | > 100 | > 100 µM | > 100 µM | > 100 |  |  |  | 
5 | c1csc(-c2csc(-c3cccs3)c2)c1 | 74 µM | 41.1 µM | > 100 µM | > 100 µM | > 100 | > 100 µM | > 100 | > 100 µM | > 100 µM | > 100 |  |  |  | 
6 | C=C1C(=O)O[C@H]2[C@@H](O)[C@H](C)CCC/C(C)=C/CC[C@@]3(C)O[C@@H]3C[C@@H]12 | 16.4 µM | 48.9 µM | 56.3 µM | 25.3 µM | 6.9 | 33.5 µM | 34.9 | 30.6 µM | 26 µM | 14.9 |  |  |  | 
7 | Nc1ncnc2c(C3OC(CO)C(O)C3O)c[nH]c12 (centres undefined) | 0.126 µM and 0.0746 µM | 0.0101 µM and < 0.0304 µM | 0.342 µM and 0.0897 µM | 0.113 µM and 0.0973 µM | 0.402 | 0.51 µM and 0.734 µM | 1.02 | 0.0868 µM and 0.0571 µM | 0.247 µM and 0.343 µM | 16.4 | 0.00179 | 0.0136 | 0.0452 | 0.011
8 | CC(C)=CCC/C(C)=C/CCC1(C)C2COC(=O)C21 (centres undefined) | > 100 µM | > 100 µM | > 100 µM | > 100 µM | > 100 | > 100 µM | > 100 | > 100 µM | > 100 µM | > 100 |  |  |  | 
9 | O=C(NC(Cc1c[nH]c2ccccc12)C(=O)O)/C(=C/c1ccccc1)NC(=O)c1ccccc1 (centres undefined) | > 100 µM | > 100 µM | > 100 µM | > 100 µM | > 100 | > 100 µM | > 100 | > 100 µM | > 100 µM | > 100 |  |  |  | 
10 | CCOC(=O)c1c(C)n(CCN2CCN(C)CC2)c2ccc(OC)cc12 | > 100 µM | 35.3 µM | > 100 µM | 73.8 µM | > 100 | 32 µM | > 100 | 74.6 µM | 30.7 µM | > 100 |  |  |  | 
11 | CC(CN(C)C)C(O)(c1ccccc1)c1ccccc1 (centres undefined) | > 100 µM | > 100 µM | > 100 µM | > 100 µM | > 100 | > 100 µM | > 100 | > 100 µM | 93.2 µM | > 100 |  |  |  | 
12 | COc1cc(/C=C2\N=C(c3ccccc3)N(c3ccc(C(=O)c4ccccc4)cc3N3C(=O)/C(=C/c4cc(OC)c(OC)c(OC)c4)N=C3c3ccccc3)C2=O)cc(OC)c1OC | 34.9 µM | 25.1 µM | > 100 µM | 43 µM | > 100 | 65.8 µM | 55.9 | 41.3 µM | 11.2 µM | > 100 |  |  |  | 
13 | COC(=O)C1CC(C=O)=C(SC)N1 (centres undefined) | > 50 µM | > 50 µM | > 50 µM | > 50 µM | > 50 | > 50 µM | > 50 | > 50 µM | > 50 µM | > 50 |  |  |  | 
14 | C=C(Cl)C(=C)CCC(Cl)C(C)(C)Cl (centres undefined) | > 100 µM | > 100 µM | > 100 µM | > 100 µM | > 100 | > 100 µM | > 100 | > 100 µM | > 100 µM | > 100 |  |  |  | 
15 | CC[N+]1(C)CCC(O)(/C=C/c2ccc(Cl)c(Cl)c2)C(C(=O)/C=C/c2ccc(Cl)c(Cl)c2)C1 (centres undefined) | 4.02 µM | 11.4 µM | 6.8 µM | 7.12 µM | 12.7 | 4.37 µM | 13.9 | 4.6 µM | 3.96 µM | 3.46 |  |  |  | 
16 | CNc1ccc([N+](=O)[O-])cc1C(=O)N1CCC[C@H]1CO | > 100 µM | > 100 µM | > 100 µM | > 100 µM | > 100 | > 100 µM | > 100 | > 100 µM | > 100 µM | > 100 |  |  |  | 
